# Laboratory results from PMC7763995 (Molecules, 2020).
# Assay: FRAP (ferric reducing antioxidant power) assay
# Conditions: 20 µM, 1 h incubation; ratio of concentrations of Trolox and test compound with same effect
# Description: The FRAP (ferric reducing antioxidant power) assay proposed by Benzie and Strain [80, 81] was modified to be performed in 96-well microplates. The FRAP reagent contained 2.5 mL of 10 mM TPTZ (2,4,6-tris(2-pyridyl)-s-triazine (Sigma-Aldrich) solution in 40 mM HCl, 2.5 mL of 20 mM FeCl3 (Sigma-Aldrich) in distilled water and 25 mL of 0.3 M acetate buffer (pH 3.6). In 96-well microplates, 10 µL aliquots of the substance under investigation (compounds 7, 8 or reference substance) dissolved in DMSO (0.5 mM) were placed in quadruplicate. The FRAP reagent (240 µL) freshly prepared and warmed to 37°C was added to three of these samples, while the same volume of acetate buffer was added to the fourth one (blank). Consequently, the concentration of the substance in a plate was 20 µM. The absorbance at 600 nm was monitored spectrophotometrically with a FLUOStar OPTIMA microplate reader at 37°C for an hour with an interval of 5–10 min. Data in Table 2 are given for 1 h of incubation of compounds with FRAP reagent. The absorbances of the blanks and those of the mixture of 240 µL FRAP reagent plus 10 µL DMSO were subtracted from the absorbances of the samples at each time interval to calculate the absorbance change. Standard antioxidants Trolox and BHT dissolved in DMSO and analyzed as described above were used as reference compounds. A calibration curve with linear formula y = 0.03x (R^2 = 0.998, p < 0.0001) was obtained for Trolox solution in DMSO in the range 2.5–100 µM and the results were expressed as FRAP units (the values calculated as the ratio of the concentrations of Trolox and the test compound resulting in the same effect.)
compound,measurement,value
"CC(C)(C)c1cc(C=NCCNc2c3c(nc4ccccc24)CCCCC3)cc(C(C)(C)C)c1O [Compound 7c, 2,6-Di-tert-butyl-4-{[2-(7,8,9,10-tetrahydro-6H-cyclohepta[b]quinolin-11-ylamino)-ethylimino]-methyl}-phenol]","Ferric Reducing Antioxidant Power, FRAP Units",0.52 ± 0.04
